Assay: refractive index (Na D-line) (dimensionless); xn = mol fraction of the nth substance listed
Conditions: 100.8 kPa, Liquid, Standard Abbe refractometry

OCc1ccccc1 [benzenemethanol] + CC(C)O
refractive index
Conditions	298.15 K	308.15 K	318.15 K
x2 = 0	1.53843	1.53421	1.52994
x2 = 0.05	1.53277	1.52858	1.52435
x2 = 0.1	1.52684	1.52268	1.51849
x2 = 0.15	1.5207	1.51654	1.51233
x2 = 0.2	1.5143	1.51019	1.50598
x2 = 0.25	1.50772	1.50359	1.49935
x2 = 0.3	1.50089	1.49674	1.4925
x2 = 0.35	1.49383	1.48966	1.48542
x2 = 0.4	1.48652	1.48234	1.47809
x2 = 0.45	1.47899	1.4748	1.47053
x2 = 0.5	1.47118	1.46698	1.46269
x2 = 0.55	1.4631	1.45889	1.45458
x2 = 0.6	1.45472	1.4505	1.44616
x2 = 0.65	1.44605	1.44182	1.43746
x2 = 0.7	1.43707	1.43283	1.42848
x2 = 0.75	1.42774	1.4235	1.41916
x2 = 0.8	1.41804	1.4138	1.40943
x2 = 0.85	1.40795	1.40368	1.39933
x2 = 0.9	1.39746	1.39319	1.38883
x2 = 0.95	1.38648	1.38219	1.3778

OCCc1ccccc1 [2-phenylethanol] + OCc1ccccc1
refractive index
Conditions	298.15 K	308.15 K	318.15 K
x2 = 0	1.53269	1.52852	1.52427
x2 = 0.05	1.53322	1.52911	1.52495
x2 = 0.1	1.53367	1.52961	1.52549
x2 = 0.15	1.5341	1.53006	1.52594
x2 = 0.2	1.53454	1.5305	1.52636
x2 = 0.25	1.53495	1.53089	1.52674
x2 = 0.3	1.53532	1.53125	1.5271
x2 = 0.35	1.53568	1.53159	1.52745
x2 = 0.4	1.53601	1.53193	1.52777
x2 = 0.45	1.53633	1.53225	1.52809
x2 = 0.5	1.53663	1.53255	1.52839
x2 = 0.55	1.53689	1.53281	1.52864
x2 = 0.6	1.53712	1.53304	1.52888
x2 = 0.65	1.53733	1.53325	1.5291
x2 = 0.7	1.53752	1.53344	1.52929
x2 = 0.75	1.53772	1.53362	1.52947
x2 = 0.8	1.53789	1.53377	1.52961
x2 = 0.85	1.53804	1.53391	1.52973
x2 = 0.9	1.53819	1.53403	1.52984
x2 = 0.95	1.53833	1.53414	1.52993

OCCc1ccccc1 [2-phenylethanol] + CC(C)O
refractive index
Conditions	298.15 K	308.15 K	318.15 K
x2 = 0	1.53269	1.52852	1.52427
x2 = 0.05	1.52795	1.52391	1.51972
x2 = 0.1	1.523	1.51896	1.51478
x2 = 0.15	1.5178	1.51375	1.50956
x2 = 0.2	1.51235	1.50826	1.50405
x2 = 0.25	1.50661	1.50253	1.49832
x2 = 0.3	1.50063	1.49652	1.49228
x2 = 0.35	1.49437	1.49025	1.48598
x2 = 0.4	1.4878	1.48365	1.47938
x2 = 0.45	1.48091	1.47673	1.47245
x2 = 0.5	1.47367	1.4695	1.46522
x2 = 0.55	1.46611	1.46193	1.45763
x2 = 0.6	1.45816	1.45395	1.44964
x2 = 0.65	1.44975	1.44553	1.4412
x2 = 0.7	1.44087	1.43664	1.4323
x2 = 0.75	1.43149	1.42725	1.4229
x2 = 0.8	1.42156	1.41733	1.41297
x2 = 0.85	1.411	1.40678	1.40239
x2 = 0.9	1.39973	1.39547	1.39112
x2 = 0.95	1.38776	1.38342	1.37903

Source: the NIST ThermoML archive (doi:10.1021/je700140j)
